Measurements taken from patent US20230096137A1, “COMPOSITION FOR LITHOGRAPHY AND PATTERN FORMATION METHOD” (Mitsubishi Gas Chemical Company, Inc., priority 2020, published 2023).

Assay: Safe solvent solubility test of compound (PGMEA)
Type: physicochemical
Settings: 23° C., ultrasonic 30 minutes, visual
Protocol: (1) Safe Solvent Solubility Test of Compound
The solubility of the compound in PGMEA was evaluated according to the following criteria using the amount dissolved in each solvent. The amount of dissolution was measured at 23° C. by precisely weighing the compound into a test tube, adding a target solvent so as to attain a predetermined concentration, applying ultrasonic waves for 30 minutes in an ultrasonic cleaner, and then visually observing the subsequent state of the fluid.
A: 5.0% by mass≤Amount of dissolution
B: 2.0% by mass≤Amount of dissolution<5.0% by mass
C: Amount of dissolution<2.0% by mass

Row | Compound | Safety solvent solubility PGMEA
1 | Oc1ccc(-c2ccc(O)c(C(c3cc(-c4ccc(O)cc4)ccc3O)c3cc(I)cc(I)c3O)c2)cc1 [BisB-2] | A (5.0% by mass≤Amount of dissolution)
2 | Oc1ccc2c3c(ccc2c1)Oc1ccc2cc(O)ccc2c1C3c1cccc(I)c1 [XbisN-1] | B (2.0% by mass≤Amount of dissolution<5.0% by mass)
3 | Oc1ccc2c3c(ccc2c1)Oc1ccc2cc(O)ccc2c1C3c1ccc(-c2ccccc2)cc1 [XBisN-C1, reference compound] | B (2.0% by mass≤Amount of dissolution<5.0% by mass)
4 | Oc1ccc2c3c(ccc2c1I)Oc1ccc2c(I)c(O)ccc2c1C3c1ccc(-c2ccccc2)cc1 [XBisN-3] | A (5.0% by mass≤Amount of dissolution)
5 | CC(C)(COc1c(I)cc(N2CC=CC2)cc1I)COc1c(I)cc(N2CC=CC2)cc1I [BMI-1] | A (5.0% by mass≤Amount of dissolution)
6 | Cc1cc(C(c2ccc(I)cc2)c2cc(C)c(O)c(C)c2)cc(C)c1O [BisB-1] | A (5.0% by mass≤Amount of dissolution)
